Experimental data: patent US20210002689A1, “METHOD FOR DETECTING DIFFERENT PROPERTIES IN A MICROORGANISM POPULATION BY OPTICALLY INDUCED DIELECTROPHORETIC FORCE” (Chang Gung University, priority 2019, published 2021)
Values after ≈ are worked out from the molar mass of the structure shown.

Columns and labels:
[1] = test system: Staphylococcus aureus strains; assay: Vancomycin Etest; type: cell-based; conditions: 125 clinical Staphylococcus aureus strains selected for PAP-AUC (35 hVISA, 90 VSSA); read-out: minimal inhibition concentration
Description: Firstly, the microorganism sample solution 10 is cultured on a blood agar plate. Next, the microorganism sample solution 10 is cultured in 5% carbon dioxide concentration and 37° C. for 16-18 hours. After being cultured, a single strain group is taken from the blood agar plate and is subjected to a matrix-assisted laser desorption ionization time-of-flight (MALDI-TOF) for strains identification. With respect to selecting strains to be identified as Staphylococcus aureus strains, Vancomycin Etest is used in which 125 strains having a minimal inhibition concentration of 2-4 μg/mL are selected for PAP-AUC.

E. coli ATCC® 35218 [2] = conditions: cited from earlier work
E. coli ATCC® 25922 [3] = conditions: cited from earlier work
E. coli ATCC® 35218 [4] = assay: ODEP force analysis after subjecting to ampicillin; type: cell-based, Escherichia coli; conditions: ampicillin 0, 4, 8 or 16 μg/ml, cultured 1.5 hours, FIG. 5
Text: (§1) Referring to FIG. 1 again, after E. coli ATCC® 35218 and E. coli ATCC® 25922 have been activated, they are made into solutions having bacteria for subsequent antibiotics processing. Steps of making solutions having bacteria are described in detail below: selecting a plurality of activated large E. coli strains; dissolving it in normal saline which is a solution of sodium chloride at 0.9% concentration; adjusting its turbidity to 0.5 McFarland to make the microorganism sample solution 10; in each solution having bacteria, adding different amounts of ampicillin antibiotics powder to make a solution having antibiotics concentration of 0 μg/ml, 4 μg/ml, 8 μg/ml or 16 μg/ml, and finally, culturing each solution of different antibiotics concentration in 5% carbon dioxide concentration and 37° C. for 1.5 hours to make the microorganism sample solution to be tested 14.
(§2) Referring to FIGS. 1 to 4 again, an injection pump is used to inject the microorganism sample solution to be tested 14 into the ODEP device 20 via the sample injection hole 221. Electrical properties (e.g., conduction or polarizability) differences are generated because E. coli ATCC® 35218 and E. coli ATCC® 25922 in the microorganism sample solution to be tested 14 have been subjected to ampicillin. […]

E. coli ATCC® 25922 [5] = assay: ODEP force analysis after subjecting to ampicillin; type: cell-based, Escherichia coli; conditions: ampicillin of gradually increased concentration (up to 16 μg/ml), cultured 1.5 hours, FIG. 5
Text: as §1, §2

| Compound | MIC [1] | minimal inhibition concentration (E. coli ATCC® 35218 [2]) | minimal inhibition concentration (E. coli ATCC® 25922 [3]) | force generated by light (ODEP force) (E. coli ATCC® 35218 [4]) | force generated by light (ODEP force) (E. coli ATCC® 25922 [5]) |
| --- | --- | --- | --- | --- | --- |
| CN[C@H](CC(C)C)C(=O)N[C@H]1C(=O)N[C@@H](CC(N)=O)C(=O)N[C@H]2C(=O)N[C@H]3C(=O)N[C@H](C(=O)N[C@H](C(=O)O)c4cc(O)cc(O)c4-c4cc3ccc4O)[C@H](O)c3ccc(c(Cl)c3)Oc3cc2cc(c3O[C@@H]2O[C@H](CO)[C@@H](O)[C@H](O)[C@H]2O[C@H]2C[C@](C)(N)[C@H](O)[C@H](C)O2)Oc2ccc(cc2Cl)[C@H]1O [Vancomycin] | 2 to 4 µg/mL (≈ 1.38 to 2.76 µM) | – | – | – | – |
| CC1(C)S[C@@H]2[C@H](NC(=O)[C@H](N)c3ccccc3)C(=O)N2[C@H]1C(=O)O [ampicillin] | – | greater than 32 μg/ml | 2 to 8 µg/mL | 220-260 μm/sec | 100 μm/sec |
